Laboratory results as given in patent publication US20240174714A1, “TREATMENT OF SKIN DISORDERS” (priority 2021, published 2024).
In brackets after ≈: the same amount, converted by molar mass. Square brackets hold non-standard residues; d marks the D form. Peptide text beside a SMILES is read from it. * marks the point of attachment. NH(1-CH2NMe2-cBu) = CN(C)CC1(N*)CCC1; Benzoyl(4-F) = O=C(c1ccc(F)cc1)*; hCha = N[C@@H](CCC1CCCCC1)C(=O)O; Aib = CC(C)(N)C(=O)O; βAla = NCCC(=O)O

Key:
[1] = Cytotoxicity assay (Alamar Blue) on L6-cells; format: cell-based, rat; conditions: rat
Method: Tests were done in triplicate.
The plates were incubated for additional 2 h.

[2] = system: Leishmania mexicana (MNYC/BZ/62/m379); test: In vivo model of cutaneous leishmaniasis, rump back model in C67BLC/6 mice; conditions: 20 μl 0.1% w/v in DMSO topically bid for 14 days
From the text: Mice. C67BLC/6 female mice were purchased from Envigo (Harlan laboratories) Indianapolis, IN, USA. 129SVE female mice were purchased from Taconic Farms, Cambridge City, IN, USA. All experimental mice were maintained at an OSU-ULAR facility in compliance with OSUIACUC.
Parasites and infection. L. mexicana (MNYC/BZ/62/m379) parasites were obtained and maintained as described previously. Promastigotes were maintained, passaged, and subsequently injected into experimental mice (5×10^6 parasites) subcutaneously into their shaven rumps. C67BLC/6 mice were infected with L. mexicana parasites for 6 weeks after which they developed lesions on their back rumps. Mice with similar lesion sizes were selected and randomized into control and treatment groups. From the beginning of treatment animals were housed individually.
Treatment. Treatment group received 20 μl of ZHAW6027 0.1% weight by volume in DMSO, twice a day (bid) for 14 days. […]
Topical drug treatments and lesion measurements. Lesion sizes were measured by using a small animal caliper twice weekly over the 14-day treatment duration and the area of the lesion was calculated by L×W, where L is the length and W is the width. […]
Quantitation of parasitic load. After 2 weeks of treatment animals were sacrificed, and the parasite load in the lesions was quantified. […] Viability of parasites was determined at 10 days of parasite culture. […]

[3] = system: Streptococcus agalactiae ATCC 12386; test: MIC broth microdilution, method 1; format: cell-based; conditions: CAMHB II, 5% LHB, 1 day at 36° C., 6027 acetate
[4] = system: Staphylococcus aureus ATCC 29213; test: MIC broth microdilution, method 1; format: cell-based; conditions: CAMHB II, 1 day at 36° C., 6027 acetate
[5] = system: Staphylococcus aureus NARSA NRS22; test: microbe, parasite or virus in culture; format: cell-based
[6] = system: Staphylococcus aureus NARSA NRS382; test: microbe, parasite or virus in culture; format: cell-based; conditions: NARSA NRS382
[7] = system: Staphylococcus aureus ATCC BAA-1556, USA300 MRSA; test: microbe, parasite or virus in culture; format: cell-based; conditions: ATCC BAA-1556
Method: Pre-formulated compound solution was diluted in 100% DMSO to prepare a 1.6 mg/mL working stock solution. […] The concentration range was 0.032 to 32 μg/mL.

[8] = system: S. aureus (USA300 MRSA, BAA-1556); test: S. aureus dermal infection model in ICR mice, CFU/skin; format: in vivo, Staphylococcus aureus; conditions: 25 hours post inoculation; topical BID at 1 and 7 h post infection, 20 μL/mouse; 6027 1% in DMSO, fusidic acid 2%
Method: Inoculum preparation. The testing strain, S. aureus USA300 MRSA (BAA-1556), was obtained from the frozen working stock and thawed at room temperature. A 0.2 mL aliquot was inoculated into 20 mL Brain-Heart Infusion broth (BHI) and then incubated at 35-37° C. with shaking (120 rpm) for 8 h. Bacterial cells in the 20 mL culture were pelleted by centrifugation at 3,500×g for 15 minutes and then re-suspended in 10 mL cold PBS (>8.0×10^9 CFU/mL, OD620 1.8-2.0). The culture was then diluted in PBS to the target inoculum of 1.0×10^7 CFU/mL. The actual bacterial counts were determined by plating dilutions onto nutrient agar (NA) plates followed by 20-24 h incubation and colony counting. The actual CFU counts were 1.04×10^7 CFU/mL.
S. aureus (USA300 MRSA, BAA-1556) dermal infection model. Groups of 5 female ICR mice weighing 24±2 g were used. Animals were anesthetized with etomidate-lipuro emulsion (20 mg/10 mL) at 20 mg/kg by intravenous (IV) injection, and then the fur on the back was removed by an electric shaver, and the epidermal layer was disrupted with an abrasive paper. Mice were inoculated topically (TOP) on the wound area with S. aureus (MRSA, BAA-1556) suspension, 5 μL/mouse. The target inoculation density was 5×10^4 CFU/mouse and the actual inoculum count 5.2×10^4 CFU/mouse. Animals were housed separately after infection. Compound 6027 in DMSO at 1% was administered topically (TOP) twice (BID) at 1 and 7 h post infection. Reference control agent, fusidic acid cream at 20 mg/gram (2%), was administered TOP BID at 1 and 7 h post infection. One infected and untreated group was sacrificed at 1 h after infection for the initial (baseline) bacterial counts. The dose volumes were 20 μL/mouse for all dosing groups.
Animals were sacrificed at 1 or 25 h after inoculation with CO2 asphyxiation. The infected skin samples of the wound infection (around 2 cm 2 areas) were excised and were homogenized in 1 mL PBS (pH 7.4) with a polytron homogenizer. A 0.1 mL aliquot of each homogenate was used for serial 10-fold dilutions and plated onto NA plates for bacterial enumeration. The bacterial counts (CFU/skin) in skin tissues were calculated and the percentage decrease in counts compared to the corresponding vehicle control (placebo) was calculated with the following formula: Decrease (%)=[(CFU/skin of placebo —CFU/skin of treatment)/(CFU/skin of placebo)]×100%.

[9] = after 48 hours; donor 0.1% 6027 in DMSO; acceptor PBS + 2% Volpo; % of total 6027
Method: The ears were washed with tap water and the hairs were removed with an electric clipper. The skin was separated from the underlying cartilage from the backside of the ear by using a scalpel. After washing the skin again, it was stored in aluminium foil at −20° C. for no longer than one month.
After thawing the frozen skin, it was cut into adequate circles and the skin thickness was measured with a calliper. The skin was mounted into the FDC, tightly sealed with Teflon band and fixed in special designed holder. Then the acceptor compartment was equipped with a magnetic stirrer, filled with placebo formulation and equilibrated for one hour. To check the barrier integrity and to be sure that there are no invisible damages from skin preparation TEWL (transepidermal water loss) was measured. The FDCs were then placed in the water bath +32° C. ±1 over a magnetic stirrer (500 rpm). Due to differences of each FDC, the skin application area for drug permeation was measured and calculated for each cell in advance. Consequently, the amount of 6027 for the donor compartment had to be adjusted for the infinite-dose experiment to 284.1 μL/cm^2.
At predefined time points 50 μL samples were taken from the acceptor compartment. The missing volume was replaced with the corresponding placebo formulation.
At the end of the permeation experiment and before reassembling the FDCs, the donor compartments were washed out with 10 mL ACN:H2O (55:45).
To extract 6027 from the skin, the frozen skin was cut into small pieces and grinded by a cryogenic grinder Freezer/Mill® from Spex SamplePrep (Metuchen, USA). The setting was 10 min precooling and a rate of 10 CPS for 4 cycles with 2 minutes. The resulting powder was resuspended in 2 mL ACN:H2O (55:45). After being vortex, the mixtures were ultrasonicated with Branson Sonifier 250 (model: 101-cx03-197) from Branson Ultrasonics Corporation (Danbury, USA). The setting for ultrasonification was output control 2 and duty cycle 30% for 60 seconds. […]
The concentrations of 6027 were determined by using HPLC-MS from Agilent Technologies. […]

Structure (SMILES): CC(C)C[C@H](NC(=O)[C@H](CCC1CCCCC1)NC(=O)[C@@H]1CCCN1C(=O)c1ccc(F)cc1)C(=O)NC(C)(C)C(=O)N[C@@H](CC(C)C)C(=O)N[C@@H](CC(C)C)C(=O)NC(C)(C)C(=O)NC(C)(C)C(=O)NCCC(=O)NC1(CN(C)C)CCC1 [Compound 6027, (2S)-2-[(2S)-4-cyclohexyl-2-{[(2S)-1-(4-fluorobenzoyl)pyrrolidin-2-yl]formamido}butanamido]-N-(1-{[(1S)-1-{[(1S)-1-({1-[(1-{[2-({1-[(dimethylamino)methyl]cyclobutyl}carbamoyl)ethyl]carbamoyl}-1-methylethyl)carbamoyl]-1-methylethyl}carbamoyl)-3-methylbutyl]carbamoyl}-3-methylbutyl]carbamoyl}-1-methylethyl)-4-methylpentanamide] ({Benzoyl(4-F)}-P[hCha]L[Aib]LL[Aib][Aib][βAla]-{NH(1-CH2NMe2-cBu)})
- IC50 at 68 h [1]: 1340 nM
- reduction of parasite loads in lesions compared to the control ([2]; limiting dilution assay, FIG. 2): about 3 orders of magnitude
- volume of the induced CL lesions over time ([2]; vs vehicle (DMSO), where lesions increased, FIG. 1): gradually reduced
- MIC of 6027 [3]: 1 µg/mL
- MIC of 6027 [4]: 1 µg/mL
- MIC of 6027 [5]: 2 µg/mL
- MIC of 6027 [6]: 1 µg/mL
- MIC [7]: 1 µg/mL (≈ 0.847 µM)
- Decrease (%) in CFU/skin vs vehicle control [8]: 71%
- LogCFU/skin after 25 hours (Standard error of the mean − SEM) [8]: 6.50 (0.16) LogCFU/skin
- Acceptor (%) [9]: 0.2%
- Donor (%) [9]: 79%
- Skin extraction (%) (skin penetration) [9]: 16%
